Patent US10800791B2, “Triazole ACC inhibitors and uses thereof” (Gilead Apollo, LLC, priority 2015, dated 2020)
In brackets after ≈: the same amount, converted by molar mass. Read-outs that look alike come from different tables or passages of the source.

What was measured:
[1] = tested on: C. krusei; assay: Antifungal Activity Assay (broth microtiter MIC), C. krusei; type: cell-based, Candida krusei; details: Pichia kudriavzevii, ATCC6258, 48 h
In short: (§1)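 MIC read by eye at 48 h, comparing challenged wells with the growth control. Yeasts grown overnight on Sabouraud dextrose agar at 35° C, suspended in RPMI 1640+MOPS and added at 2.5×10^3 CFU/mL final, following CLSI M27-A3.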

[2] = molecular target: human (hACC2) (Homo sapiens, UniProt O00763); assay: In vitro ACC inhibition assay (ADP-Glo), hACC2; type: biochemical; details: 5 nM ACC2, 20 μM ATP, 20 μM acetyl-CoA
Protocol: The detailed procedure is as follows. […] 10 μL ADP glo reagent was added. […] 20 μL kinase detection reagent was added.

[3] = molecular target: fungal (fACC2) (UniProt Q00955); details: read-out: fACC2 (in vitro ACC2 Inhibition Assay, IC50), ADP-Glo, 5 nM ACC2, 20 μM ATP, 20 μM acetyl-CoA
Protocol: An exemplary procedure for the in vitro ACC inhibition assay, which can be used to determine the inhibitory action of compounds of the invention toward either human (hACC2) or fungal (fACC2), follows. The ADP-Glo™ Kinase Assay kit from Promega was used. The ADP-Glo™ Kinase Assay is a luminescent ADP detection assay to measure enzymatic activity by quantifying the amount of ADP produced during an enzyme reaction. The assay is performed in two steps; first, after the enzyme reaction, an equal volume of ADP-Glo™ Reagent is added to terminate the reaction and deplete the remaining ATP. Second, the Kinase Detection Reagent is added to simultaneously convert ADP to ATP and allow the newly synthesized ATP to be measured using a luciferase/luciferin reaction. Luminescence can be correlated to ADP concentrations by using an ATP-to-ADP conversion curve. […] 50 μL of the compound being tested (600 μM in DMSO) was added to a 384-well dilution plate. The compound was diluted 1:3 in succession in DMSO for each row for 11 wells. 0.5 μL ACC2 working solution was added to 384-well white Optiplate assay plate. 0.5 μL diluted compound solution in each column from step 2 was added to assay plate, each row containing 2 replicates. […] The plates were incubated at room temperature for 15 minutes. 5 μL substrate working solution was added to each well to initiate reaction. Final ACC2 reaction concentrations consist of: 5 nM ACC2, 20 μM ATP, 20 μM acetyl-CoA, 12 mM NaHCO3, 0.01% Brij35, 2 mM DTT, 5% DMSO, test compound concentrations: 30 μM, 10 μM, 3.33 μM, 1.11 μM, 0.37 μM, 0.123 μM, 0.0411 μM, 0.0137 μM, 0.00457 μM, 0.00152 μM, and 0.00051 μM. Plates were incubated at room temperature for 60 minutes. 10 μL ADP glo reagent was added. Plates were incubated at room temperature for 40 minutes. 20 μL kinase detection reagent was added. Plates were incubated at room temperature for 40 minutes, and then read on a Perkin Elmer EnVision 2104 plate reader for luminescence as Relative Light Units (RLU).
Data for each concentration, as well as the positive and negative controls were averaged, and the standard deviation calculated. Percent inhibition was calculated by the formula: 100×(average negative control−compound)/(average negative control−average positive control). The IC50 for each compound was calculated by fitting the data with a non-linear regression equation: Y=Bottom+(Top−Bottom)/(1+10 ((Log IC50−X)*HillSlope)), where X is the log of compound concentration and Y is percent inhibition.

[4] = tested on: C. parapsilosis; assay: Antifungal Activity Assay (broth microtiter MIC), C. parapsilosis; type: cell-based, Candida parapsilosis; details: Lodderomyces parapsilosis, ATCC22019, 48 h
In short: as §1

[5] = tested on: C. albicans; assay: Antifungal Activity Assay (broth microtiter MIC), C. albicans; type: cell-based, Candida albicans; details: Candida albicans, ATCC90028, 48 h
In short: as §1

[6] = Table 3b (additional results), ATCC 6258, 3 replicates, MIC recorded at 48 h, read-out: MIC, C. krusei ATCC 6258
[7] = Table 3b (additional results), ATCC 22019, 3 replicates, MIC recorded at 48 h, read-out: MIC, C. parapsilosis ATCC 22019
[8] = Table 3b (additional results), ATCC 90028, 3 replicates, MIC recorded at 48 h, read-out: MIC, C. albicans ATCC 90028
[9] = read-out: MIC, C. krusei ATCC 6258, Table 3b (additional results), 3 replicates, MIC recorded at 48 h
[10] = read-out: MIC, C. parapsilosis ATCC 22019, Table 3b (additional results), 3 replicates, MIC recorded at 48 h
[11] = read-out: MIC, C. albicans ATCC 90028, Table 3b (additional results), 3 replicates, MIC recorded at 48 h

human (hACC2), sequence (O00763 whole entry): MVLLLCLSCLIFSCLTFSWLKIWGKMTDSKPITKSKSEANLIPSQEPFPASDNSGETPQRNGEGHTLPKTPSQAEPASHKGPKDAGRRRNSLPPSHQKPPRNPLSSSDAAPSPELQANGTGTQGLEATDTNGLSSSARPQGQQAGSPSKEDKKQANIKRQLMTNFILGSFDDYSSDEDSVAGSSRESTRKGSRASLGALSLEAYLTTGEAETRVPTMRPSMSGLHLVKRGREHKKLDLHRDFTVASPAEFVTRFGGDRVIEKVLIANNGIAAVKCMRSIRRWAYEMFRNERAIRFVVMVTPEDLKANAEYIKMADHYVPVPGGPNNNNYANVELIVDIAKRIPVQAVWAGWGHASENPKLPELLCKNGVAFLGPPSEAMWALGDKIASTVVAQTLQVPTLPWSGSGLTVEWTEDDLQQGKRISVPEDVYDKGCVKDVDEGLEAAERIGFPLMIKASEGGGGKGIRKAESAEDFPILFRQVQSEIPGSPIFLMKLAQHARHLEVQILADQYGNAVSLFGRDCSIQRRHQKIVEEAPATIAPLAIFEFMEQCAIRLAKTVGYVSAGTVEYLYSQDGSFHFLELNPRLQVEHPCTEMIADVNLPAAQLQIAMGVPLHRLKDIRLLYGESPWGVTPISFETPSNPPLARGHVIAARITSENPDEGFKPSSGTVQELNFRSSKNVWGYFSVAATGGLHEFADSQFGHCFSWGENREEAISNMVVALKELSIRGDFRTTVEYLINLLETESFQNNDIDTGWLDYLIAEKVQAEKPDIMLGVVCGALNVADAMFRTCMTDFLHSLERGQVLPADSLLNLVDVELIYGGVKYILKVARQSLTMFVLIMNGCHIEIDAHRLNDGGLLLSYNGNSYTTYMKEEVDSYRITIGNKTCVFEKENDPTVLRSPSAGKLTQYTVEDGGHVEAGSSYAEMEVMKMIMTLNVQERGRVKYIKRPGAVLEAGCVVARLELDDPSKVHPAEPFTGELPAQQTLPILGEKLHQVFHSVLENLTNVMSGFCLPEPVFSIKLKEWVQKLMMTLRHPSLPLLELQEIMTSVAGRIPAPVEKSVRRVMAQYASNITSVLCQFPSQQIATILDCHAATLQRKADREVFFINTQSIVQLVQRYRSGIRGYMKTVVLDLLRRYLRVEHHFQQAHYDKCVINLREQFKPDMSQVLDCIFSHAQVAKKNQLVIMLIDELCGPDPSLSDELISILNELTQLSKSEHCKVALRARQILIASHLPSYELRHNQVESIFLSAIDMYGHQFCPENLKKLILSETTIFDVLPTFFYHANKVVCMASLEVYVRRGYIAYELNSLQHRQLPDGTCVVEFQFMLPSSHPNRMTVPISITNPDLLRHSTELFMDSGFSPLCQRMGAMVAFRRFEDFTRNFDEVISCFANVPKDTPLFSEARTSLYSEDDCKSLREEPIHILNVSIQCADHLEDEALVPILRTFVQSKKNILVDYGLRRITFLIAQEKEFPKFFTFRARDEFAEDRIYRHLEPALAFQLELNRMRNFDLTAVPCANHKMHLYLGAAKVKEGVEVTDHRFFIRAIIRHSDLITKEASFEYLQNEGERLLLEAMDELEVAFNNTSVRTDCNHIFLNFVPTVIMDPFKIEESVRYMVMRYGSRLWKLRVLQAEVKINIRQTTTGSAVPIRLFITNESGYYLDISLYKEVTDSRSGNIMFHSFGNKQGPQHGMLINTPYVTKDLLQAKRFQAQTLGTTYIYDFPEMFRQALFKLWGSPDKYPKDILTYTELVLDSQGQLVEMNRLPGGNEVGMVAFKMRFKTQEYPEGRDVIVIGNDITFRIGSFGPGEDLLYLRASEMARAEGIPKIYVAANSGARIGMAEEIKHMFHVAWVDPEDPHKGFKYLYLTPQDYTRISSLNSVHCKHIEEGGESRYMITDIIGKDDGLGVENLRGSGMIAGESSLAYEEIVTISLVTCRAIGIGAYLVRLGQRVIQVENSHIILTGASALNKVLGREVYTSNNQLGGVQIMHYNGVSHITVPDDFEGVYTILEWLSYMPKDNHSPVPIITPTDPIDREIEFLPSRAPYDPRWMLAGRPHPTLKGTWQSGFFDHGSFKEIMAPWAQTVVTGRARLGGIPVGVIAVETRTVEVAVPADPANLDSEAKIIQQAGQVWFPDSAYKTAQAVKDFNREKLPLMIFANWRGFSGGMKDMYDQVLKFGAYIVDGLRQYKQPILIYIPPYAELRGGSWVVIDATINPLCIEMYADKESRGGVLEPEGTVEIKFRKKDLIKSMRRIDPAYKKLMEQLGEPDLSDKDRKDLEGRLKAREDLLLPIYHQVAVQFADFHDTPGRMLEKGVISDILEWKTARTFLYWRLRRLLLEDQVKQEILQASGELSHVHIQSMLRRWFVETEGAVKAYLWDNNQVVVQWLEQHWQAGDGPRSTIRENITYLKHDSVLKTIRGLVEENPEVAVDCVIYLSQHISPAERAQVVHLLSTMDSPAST
fungal (fACC2), sequence (Q00955 whole entry): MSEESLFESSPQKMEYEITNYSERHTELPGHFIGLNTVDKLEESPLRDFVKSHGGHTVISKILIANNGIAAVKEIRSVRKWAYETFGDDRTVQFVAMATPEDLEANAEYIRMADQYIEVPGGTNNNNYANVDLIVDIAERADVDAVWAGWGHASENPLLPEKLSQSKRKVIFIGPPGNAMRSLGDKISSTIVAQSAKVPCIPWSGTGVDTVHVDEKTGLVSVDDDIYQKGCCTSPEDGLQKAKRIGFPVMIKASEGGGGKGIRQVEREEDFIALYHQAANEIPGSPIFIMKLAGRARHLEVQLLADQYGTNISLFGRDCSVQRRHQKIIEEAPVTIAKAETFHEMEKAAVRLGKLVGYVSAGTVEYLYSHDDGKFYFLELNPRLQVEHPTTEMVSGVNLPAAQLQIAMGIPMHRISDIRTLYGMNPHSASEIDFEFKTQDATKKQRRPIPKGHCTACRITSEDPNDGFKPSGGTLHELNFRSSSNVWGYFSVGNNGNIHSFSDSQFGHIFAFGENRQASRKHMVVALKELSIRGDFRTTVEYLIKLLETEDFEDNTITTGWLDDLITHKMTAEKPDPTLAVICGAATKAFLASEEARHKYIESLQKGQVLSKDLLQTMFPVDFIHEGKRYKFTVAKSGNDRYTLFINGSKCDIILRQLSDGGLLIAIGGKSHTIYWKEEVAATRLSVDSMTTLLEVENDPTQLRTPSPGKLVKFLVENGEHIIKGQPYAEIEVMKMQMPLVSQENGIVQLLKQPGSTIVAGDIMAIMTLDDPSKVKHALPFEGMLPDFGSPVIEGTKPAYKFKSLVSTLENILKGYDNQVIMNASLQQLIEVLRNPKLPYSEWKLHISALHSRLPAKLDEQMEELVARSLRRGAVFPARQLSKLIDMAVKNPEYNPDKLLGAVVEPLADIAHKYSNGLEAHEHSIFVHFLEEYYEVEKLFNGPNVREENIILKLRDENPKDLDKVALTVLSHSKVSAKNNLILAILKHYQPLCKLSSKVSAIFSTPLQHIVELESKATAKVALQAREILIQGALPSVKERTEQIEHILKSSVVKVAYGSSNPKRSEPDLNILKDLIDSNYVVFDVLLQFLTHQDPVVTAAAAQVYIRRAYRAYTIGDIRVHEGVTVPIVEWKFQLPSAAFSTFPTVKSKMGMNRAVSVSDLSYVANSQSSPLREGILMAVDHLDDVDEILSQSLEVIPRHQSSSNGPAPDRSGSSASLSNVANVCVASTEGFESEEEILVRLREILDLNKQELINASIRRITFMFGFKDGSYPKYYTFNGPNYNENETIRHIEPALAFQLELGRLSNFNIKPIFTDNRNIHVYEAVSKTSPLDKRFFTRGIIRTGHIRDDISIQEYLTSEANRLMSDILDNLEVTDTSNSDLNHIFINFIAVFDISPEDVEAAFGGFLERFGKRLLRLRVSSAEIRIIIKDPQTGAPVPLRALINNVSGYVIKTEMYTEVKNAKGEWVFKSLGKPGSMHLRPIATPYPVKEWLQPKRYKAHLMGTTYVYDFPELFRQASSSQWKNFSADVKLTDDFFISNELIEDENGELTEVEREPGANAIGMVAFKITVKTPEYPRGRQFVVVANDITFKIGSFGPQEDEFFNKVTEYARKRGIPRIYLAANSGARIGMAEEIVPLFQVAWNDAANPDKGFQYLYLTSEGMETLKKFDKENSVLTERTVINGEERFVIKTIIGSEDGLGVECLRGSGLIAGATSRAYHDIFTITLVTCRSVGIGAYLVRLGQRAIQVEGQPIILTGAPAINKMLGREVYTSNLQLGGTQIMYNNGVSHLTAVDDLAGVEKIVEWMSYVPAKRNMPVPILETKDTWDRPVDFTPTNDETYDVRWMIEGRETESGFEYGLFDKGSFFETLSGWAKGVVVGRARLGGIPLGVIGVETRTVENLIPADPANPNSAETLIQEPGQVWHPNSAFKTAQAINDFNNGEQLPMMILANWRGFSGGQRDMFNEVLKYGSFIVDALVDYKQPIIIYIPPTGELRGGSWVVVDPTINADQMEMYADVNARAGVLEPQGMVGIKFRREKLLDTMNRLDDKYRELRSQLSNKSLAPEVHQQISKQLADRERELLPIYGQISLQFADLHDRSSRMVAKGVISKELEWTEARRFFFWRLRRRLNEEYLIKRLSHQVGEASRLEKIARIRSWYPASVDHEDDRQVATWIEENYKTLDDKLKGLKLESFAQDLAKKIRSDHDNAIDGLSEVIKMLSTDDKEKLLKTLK

SMILES | MIC [1, 6] [µg/mL] | IC50 ([2]; Table 2a) [nM] | IC50 ([2]; Table 2b, additional results) [nM] | IC50 ([3]; Table 2a) [nM] | IC50 ([3]; Table 2b, additional results) [nM] | MIC [4, 7] [µg/mL] | MIC [5, 8] [µg/mL] | MIC [1, 9] [µg/mL] | MIC [4, 10] [µg/mL] | MIC [5, 11] [µg/mL]
COc1ccc(F)cc1[C@H](Cn1c(=O)n([C@H](C)C(=O)N(C)C(C)C)c(=O)c2c(C)c(-n3nccn3)sc21)OCC(C)(C)O [Compound I-169] | > 4.01 | > 40 | > 40 | 1 to 5 | 1 to 5 | 2.01 to 4 (≈ 3.26 to 6.49 µM) | 0.25 to 1 (≈ 0.405 to 1.62 µM) |  |  | 
COc1ccc(F)cc1[C@H](Cn1c(=O)n([C@@H](C)C(=O)N(C)C(C)C)c(=O)c2c(C)c(-n3nccn3)sc21)OCC(C)(C)O [Compound I-170] | > 4.01 | 10 to 40 | 10 to 40 | 0.4 to 1 | 0.3 to 1 | 2.01 to 4 (≈ 3.26 to 6.49 µM) | 0.25 to 1 (≈ 0.405 to 1.62 µM) |  |  | 
COc1ccc(F)cc1[C@H](Cn1c(=O)n([C@H](C)C(=O)NC(C)C)c(=O)c2c(C)c(-n3nccn3)sc21)OCC(C)(C)O [Compound I-171] |  | 10 to 40 | 10 to 40 | 1 to 5 | 1 to 5 |  |  | 2.01 to 4 (≈ 3.34 to 6.64 µM) | 1.01 to 2 (≈ 1.68 to 3.32 µM) | 1.01 to 2 (≈ 1.68 to 3.32 µM)
COc1ccc(F)cc1[C@H](Cn1c(=O)n([C@@H](C)C(=O)NC(C)C)c(=O)c2c(C)c(-n3nccn3)sc21)OCC(C)(C)O [Compound I-172] |  | 5 to 10 | 5 to 10 | 0.4 to 1 | 0.3 to 1 |  |  | 2.01 to 4 (≈ 3.34 to 6.64 µM) | 1.01 to 2 (≈ 1.68 to 3.32 µM) | 1.01 to 2 (≈ 1.68 to 3.32 µM)
COc1ccc(F)cc1[C@H](Cn1c(=O)n([C@H](C)C(N)=O)c(=O)c2c(C)c(-n3nccn3)sc21)OCC(C)(C)O [Compound I-173] | > 4.01 | 10 to 40 | 10 to 40 | 1 to 5 | 1 to 5 | 2.01 to 4 (≈ 3.59 to 7.14 µM) | 0.25 to 1 (≈ 0.446 to 1.78 µM) |  |  | 
COc1ccc(F)cc1[C@H](Cn1c(=O)n([C@@H](C)C(N)=O)c(=O)c2c(C)c(-n3nccn3)sc21)OCC(C)(C)O [Compound I-174] | > 4.01 | 5 to 10 | 5 to 10 | 0.4 to 1 | 0.3 to 1 | 2.01 to 4 (≈ 3.59 to 7.14 µM) | 0.25 to 1 (≈ 0.446 to 1.78 µM) |  |  | 
COc1ccc(F)cc1[C@H](Cn1c(=O)n([C@H](C)C(=O)N2CCCC2)c(=O)c2c(C)c(-n3nccn3)sc21)OCC(C)(C)O [Compound I-175] | 2.01 to 4 (≈ 3.27 to 6.51 µM) | 5 to 10 | 5 to 10 | 0.4 to 1 | 0.3 to 1 | 1.01 to 2 (≈ 1.64 to 3.25 µM) | 0.25 to 1 (≈ 0.407 to 1.63 µM) |  |  | 
COc1ccc(F)cc1[C@H](Cn1c(=O)n([C@@H](C)C(=O)N2CCCC2)c(=O)c2c(C)c(-n3nccn3)sc21)OCC(C)(C)O [Compound I-176] | 2.01 to 4 (≈ 3.27 to 6.51 µM) | 10 to 40 | 10 to 40 | 1 to 5 | 1 to 5 | 1.01 to 2 (≈ 1.64 to 3.25 µM) | 0.25 to 1 (≈ 0.407 to 1.63 µM) |  |  | 
COc1ccccc1[C@@H](O)Cn1c(=O)n([C@@H](C)C(=O)N(C)C(C)C)c(=O)c2c(C)c(-n3nccn3)sc21 [Compound I-200] | 2.01 to 4 (≈ 3.82 to 7.6 µM) |  | 10 to 40 |  | 1 to 5 | 2.01 to 4 (≈ 3.82 to 7.6 µM) | 2.01 to 4 (≈ 3.82 to 7.6 µM) |  |  | 
COc1ccccc1[C@@H](O)Cn1c(=O)n([C@@H](C)C(=O)NC(C)C)c(=O)c2c(C)c(-n3nccn3)sc21 [Compound I-201] |  |  | 10 to 40 |  | 0.3 to 1 |  |  | 2.01 to 4 (≈ 3.92 to 7.8 µM) | 1.01 to 2 (≈ 1.97 to 3.9 µM) | 2.01 to 4 (≈ 3.92 to 7.8 µM)
CCc1ccc(F)cc1[C@@H](O)Cn1c(=O)n(C(C)(C)C(N)=O)c(=O)c2c(C)c(-n3nccn3)sc21 [Compound I-202] | > 4.01 |  | 10 to 40 |  | 1 to 5 | > 4.01 | > 4.01 |  |  | 
COc1ccccc1[C@H](Cn1c(=O)n([C@@H](C)C(=O)N(C)C(C)C)c(=O)c2c(C)c(-n3nccn3)sc21)OCCO [Compound I-207] | 1.01 to 2 (≈ 1.77 to 3.5 µM) |  | 5 to 10 |  | 0.3 to 1 | 1.01 to 2 (≈ 1.77 to 3.5 µM) | 1.01 to 2 (≈ 1.77 to 3.5 µM) |  |  | 
COc1ccccc1[C@H](Cn1c(=O)n(C(C)(C)C(=O)NC(C)C)c(=O)c2c(C)c(-n3nccn3)sc21)OCCN1CC(F)C1 [Compound I-209] |  |  | > 40 |  | 1 to 5 |  |  | 0.25 to 1 (≈ 0.398 to 1.59 µM) | 0.25 to 1 (≈ 0.398 to 1.59 µM) | 1.01 to 2 (≈ 1.61 to 3.19 µM)
COc1ccc(F)cc1[C@H](Cn1c(=O)n(C(C)(C)C(=O)NC(C)C)c(=O)c2c(C)c(-n3nccn3)sc21)OCCC(=O)N(C)O [Compound I-219] |  |  | 5 to 10 |  | 1 to 5 |  |  | 0.25 to 1 (≈ 0.387 to 1.55 µM) | 0.25 to 1 (≈ 0.387 to 1.55 µM) | 0.25 to 1 (≈ 0.387 to 1.55 µM)
COc1ccc(F)cc1[C@H](Cn1c(=O)n(C(C)(C)C(=O)NC(C)C)c(=O)c2c(C)c(-n3nccn3)sc21)OCCC(O)CO (stereo partly drawn) [Compound I-220] | 0.25 to 1 (≈ 0.395 to 1.58 µM) |  | 10 to 40 |  | 1 to 5 | 0.25 to 1 (≈ 0.395 to 1.58 µM) | 0.25 to 1 (≈ 0.395 to 1.58 µM) |  |  | 
COc1ccc(Cl)cc1[C@H](Cn1c(=O)n(C(C)(C)C(=O)NC2CCC2)c(=O)c2c(C)c(-n3nccn3)sc21)OC1CCOCC1 [Compound I-228] | 0.06 to 0.249 (≈ 0.0913 to 0.379 µM) |  | 5 to 10 |  | 1 to 5 | 0.25 to 1 (≈ 0.38 to 1.52 µM) | 0.25 to 1 (≈ 0.38 to 1.52 µM) |  |  | 
CCc1ccc(F)cc1[C@H](Cn1c(=O)n(C(C)(C)C(=O)NC2CCC2)c(=O)c2c(C)c(-n3nccn3)sc21)OC1CCOCC1 [Compound I-232] | 1.01 to 2 (≈ 1.58 to 3.13 µM) |  | 5 to 10 |  | 1 to 5 | 1.01 to 2 (≈ 1.58 to 3.13 µM) | 2.01 to 4 (≈ 3.15 to 6.26 µM) |  |  | 
COc1ccc(F)cc1[C@H](Cn1c(=O)n(C(C)(C)C(=O)NC(C)C)c(=O)c2c(C)c(-n3nccn3)sc21)O[C@H]1C[C@@H](OCc2ccccc2)C1 [Compound I-233] | 0.25 to 1 (≈ 0.355 to 1.42 µM) |  | 10 to 40 |  | 1 to 5 | 0.25 to 1 (≈ 0.355 to 1.42 µM) | 0.25 to 1 (≈ 0.355 to 1.42 µM) |  |  | 
Cc1c(-n2nccn2)sc2c1c(=O)n(C(C)(C)C(=O)NC(C)C)c(=O)n2C[C@H](OCCO)c1cc(F)ccc1OCc1ccccc1 [Compound I-237] | 1.01 to 2 (≈ 1.52 to 3.01 µM) |  | 10 to 40 |  | 1 to 5 | 1.01 to 2 (≈ 1.52 to 3.01 µM) | 1.01 to 2 (≈ 1.52 to 3.01 µM) |  |  | 
CCc1ccccc1[C@H](Cn1c(=O)n(C(C)(C)C(=O)NC(C)C)c(=O)c2c(C)c(-n3nccn3)sc21)O[C@H]1CC[C@@H](C#N)CC1 [Compound I-242] |  |  | 1 to 5 |  | 1 to 5 |  |  | 1.01 to 2 (≈ 1.6 to 3.17 µM) | 1.01 to 2 (≈ 1.6 to 3.17 µM) | 1.01 to 2 (≈ 1.6 to 3.17 µM)
CCc1ccc(F)cc1[C@H](Cn1c(=O)n(C(C)(C)C(=O)NC(C)C)c(=O)c2c(C)c(-n3nccn3)sc21)OC[C@H](C)C#N [Compound I-243] | > 4.01 |  | > 40 |  | 1 to 5 | 2.01 to 4 (≈ 3.3 to 6.56 µM) | 2.01 to 4 (≈ 3.3 to 6.56 µM) |  |  | 
CCc1ccc(F)cc1[C@H](Cn1c(=O)n(C(C)(C)C(=O)NC(C)C)c(=O)c2c(C)c(-n3nccn3)sc21)OC[C@@H](C)C#N [Compound I-244] | > 4.01 |  | > 40 |  | 1 to 5 | 2.01 to 4 (≈ 3.3 to 6.56 µM) | 2.01 to 4 (≈ 3.3 to 6.56 µM) |  |  | 
Cc1c(-n2nccn2)sc2c1c(=O)n(C(C)(C)C(=O)NC(C)C)c(=O)n2C[C@H](OCCC#N)c1cc(F)ccc1OCc1ccccc1 [Compound I-249] | 2.01 to 4 (≈ 2.98 to 5.94 µM) |  | 5 to 10 |  | 0.3 to 1 | 1.01 to 2 (≈ 1.5 to 2.97 µM) | 2.01 to 4 (≈ 2.98 to 5.94 µM) |  |  | 
COc1ccc(F)cc1[C@H](Cn1c(=O)n(C(C)(C)C(=O)NC(C)C)c(=O)c2c(C)c(-n3nccn3)sc21)OCCOC(=O)C(C)C [Compound I-250] | 0.25 to 1 (≈ 0.38 to 1.52 µM) |  | 5 to 10 |  | 1 to 5 | 0.25 to 1 (≈ 0.38 to 1.52 µM) | 1.01 to 2 (≈ 1.53 to 3.04 µM) |  |  | 
COc1ccc(F)cc1[C@@H](Cn1c(=O)n(C(C)(C)C(=O)NC(C)C)c(=O)c2c(C)c(-n3nccn3)sc21)OC(=O)CO [Compound I-261] | 0.06 to 0.249 (≈ 0.0996 to 0.413 µM) |  | 5 to 10 |  | 0.3 to 1 | 1.01 to 2 (≈ 1.68 to 3.32 µM) | 0.25 to 1 (≈ 0.415 to 1.66 µM) |  |  | 
